Source: patent US4194006A, “Therapeutic application of acetyl-d,l-carnitine and other acyl derivatives of d,l-carnitine” (priority 1977, dated 1980)
Read-outs that look alike come from different tables or passages of the source.

Tests used:
[1] = antagonism to adrenaline-induced toxicity; format: in vivo, male albino Swiss mice; settings: mouse, in vivo, ip; adrenaline (tartrate) intraperitoneally, mice; mortality 36 hours; read-out: LD50 (fiducial limits for 95%) of adrenaline alone
Protocol: (§1) The antagonism to adrenaline-induced toxicity was also investigated with the following results. Groups of ten male albino Swiss mice were injected with adrenaline (tartrate) intraperitoneally at progressive logarithmic doses. Other similar groups of animals were injected with 250 mg/kg of the compounds under examination via the same route, 30 minutes before adrenaline administration. Mortality was assessed by means of the Litchfield and Wilcoxon method 36 hours after adrenaline administration.

in vivo = settings: mouse, in vivo, iv
Excerpt: (§2) The tolerance of acetyl-d,l-carnitine and of the other aforementioned acyl derivatives of the formula (I), as well as their salts were investigated by comparing the LD50 obtained by administering the compounds intravenously in mice with the LD50 obtained under the same experimental conditions by intravenous injection of d,l-carnitine.

mice = experiment: in vivo; settings: for tolerance: LD50 intravenously in mice, compared with d,l-carnitine
Excerpt: as §2

isolated rabbit hearts [2] = experiment: cardiokinetic effect on isolated heart (Langendorff): contractile force after anoxia, positive inotropic effect; settings: for Contractile force, Mean ± S.E.: 10 minutes from interruption of anoxic period
Procedure, shortened: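 Rabbit hearts were perfused Langendorff-style with oxygenated Ringer at 38.2 °C. Anoxia was applied until contractile force dropped by 80%, then the hearts were reoxygenated with or without compound. Contractile force was expressed as a percentage 10 min after the anoxic period ended.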

isolated rabbit hearts [3] = experiment: coronary vasodilator effect: coronary flow, isolated heart (Langendorff)
Procedure, shortened: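 Langendorff-perfused isolated rabbit hearts in oxygenated Ringer at 38.2° C; anoxia imposed until contractile force fell by 80%, then reoxygenated with or without test compound. Coronary flow, isometric contraction and ECG recorded by polygraph.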

isolated rat atrium = experiment: antiarrhythmic effect, isolated rat atrium method of M. Libonati and G. Segre; settings: for inhibition at 0.1 µg/mL / activation at 0.1 µg/mL / inhibition at 0.01 µg/mL / activation at 0.01 µg/mL / inhibition at 0.001 µg/mL / activation at 0.001 µg/mL: Rattus norvegicus; for inhibition at 0.1 µg/mL / inhibition at 0.01 µg/mL / inhibition at 0.001 µg/mL / Mean percent variation versus controls: excitability (-%) / Mean percent variation versus controls: frequency max (-%): decrease; for activation at 0.1 µg/mL / activation at 0.01 µg/mL / activation at 0.001 µg/mL / Mean percent variation versus controls: refractory period (+%) / Mean percent variation versus controls: rheobase (+%): increase
female rats = experiment: antifatigue effect: rota-rod; format: in vivo, rat; settings: for responders at 300 mg/kg / responders at 400 mg/kg / responders at 600 mg/kg: Rattus norvegicus, ip, 0.25 h, read-out: percentage of animals staying on the rota-rod more than 180 seconds
Procedure, shortened: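 Female rats dosed intraperitoneally in saline, with controls given saline alone. Every 15 min after treatment animals were placed on a 6 cm rod rotating at 16 r.p.m. Value is the percentage of animals staying on the rod for more than 180 s, per session.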

[4] = test system: adrenaline-induced toxicity; experiment: antagonism to adrenaline-induced toxicity; format: in vivo, male albino Swiss mice
Protocol: as §1

[5] = 300 mg/kg i.p., session 1 (every 15 minutes)
[6] = 300 mg/kg i.p., session 2 (every 15 minutes)
[7] = 300 mg/kg i.p., session 4 (every 15 minutes)
[8] = 300 mg/kg i.p., session 5 (every 15 minutes)
[9] = 300 mg/kg i.p., session 6 (every 15 minutes)
[10] = 400 mg/kg i.p., session 1 (every 15 minutes)
[11] = 400 mg/kg i.p., session 2 (every 15 minutes)
[12] = 400 mg/kg i.p., session 3 (every 15 minutes)
[13] = 400 mg/kg i.p., session 4 (every 15 minutes)
[14] = 400 mg/kg i.p., session 5 (every 15 minutes)
[15] = 400 mg/kg i.p., session 6 (every 15 minutes), * p < 0.05
[16] = 600 mg/kg i.p., session 1 (every 15 minutes)
[17] = 600 mg/kg i.p., session 2 (every 15 minutes)
[18] = 600 mg/kg i.p., session 3 (every 15 minutes)
[19] = 600 mg/kg i.p., session 4 (every 15 minutes)
[20] = 600 mg/kg i.p., session 5 (every 15 minutes)
[21] = 600 mg/kg i.p., session 6 (every 15 minutes), * p < 0.05

`CNCC(O)c1ccc(O)c(O)c1` (centres unmarked) [Adrenaline, reference compound] showed an LD50 at 36 h [1] of 27.7 mg/kg.
With `CC(=O)CC(=O)OC(CC(=O)[O-])C[N+](C)(C)C` (racemic) [acetoacetyl-d,l-carnitine] the LD50 (in vivo) was ~728 mg/kg, the tolerance (mice) was “better tolerance properties” and the “Contractile force, Mean ± S.E.” value (isolated rabbit hearts [2]; 1·10^-5 g/lt) was 58.3 ± 5.08%. For the same molecule, the “Contractile force, Mean ± S.E.” value (isolated rabbit hearts [2]; 1·10^-6 g/lt) was 30.1 ± 3.98%, the “Contractile force, Mean ± S.E.” value (isolated rabbit hearts [2]; 5·10^-6 g/lt) was 38.2 ± 4.66% and the “Coronary flow, Mean ± S.E.” value (isolated rabbit hearts [3]; 1·10^-5 g/lt) was 89.82 ± 6.38%. For the same molecule, the “Coronary flow, Mean ± S.E.” value (isolated rabbit hearts [3]; 1·10^-6 g/lt) was 74.65 ± 3.54%, the “Coronary flow, Mean ± S.E.” value (isolated rabbit hearts [3]; 5·10^-6 g/lt) was 75.70 ± 10.1% and the inhibition at 0.1 µg/mL (isolated rat atrium; 1·10^-4 g/lt, read-out: Mean percent variation versus controls: excitability (-%)) was 40.1%. It also gave an inhibition at 0.1 µg/mL (isolated rat atrium; 1·10^-4 g/lt, read-out: Mean percent variation versus controls: frequency max (-%)) of 25.5%, an activation at 0.1 µg/mL (isolated rat atrium; 1·10^-4 g/lt, read-out: Mean percent variation versus controls: refractory period (+%)) of 22.8% and an activation at 0.1 µg/mL (isolated rat atrium; 1·10^-4 g/lt, read-out: Mean percent variation versus controls: rheobase (+%)) of 21.9%. For the same molecule, the inhibition at 0.01 µg/mL (isolated rat atrium; 1·10^-5 g/lt, read-out: Mean percent variation versus controls: excitability (-%)) was 27.1%, the inhibition at 0.01 µg/mL (isolated rat atrium; 1·10^-5 g/lt, read-out: Mean percent variation versus controls: frequency max (-%)) was 22.7% and the activation at 0.01 µg/mL (isolated rat atrium; 1·10^-5 g/lt, read-out: Mean percent variation versus controls: refractory period (+%)) was 14.7%. It also gave an activation at 0.01 µg/mL (isolated rat atrium; 1·10^-5 g/lt, read-out: Mean percent variation versus controls: rheobase (+%)) of 9.94%, an inhibition at 0.001 µg/mL (isolated rat atrium; 1·10^-6 g/lt, read-out: Mean percent variation versus controls: excitability (-%)) of 12.2% and an inhibition at 0.001 µg/mL (isolated rat atrium; 1·10^-6 g/lt, read-out: Mean percent variation versus controls: frequency max (-%)) of 7.34%. The activation at 0.001 µg/mL (isolated rat atrium; 1·10^-6 g/lt, read-out: Mean percent variation versus controls: refractory period (+%)) was 10.7%, the activation at 0.001 µg/mL (isolated rat atrium; 1·10^-6 g/lt, read-out: Mean percent variation versus controls: rheobase (+%)) was 3.01% and the responders at 300 mg/kg (female rats; [5]) was 0%. It also gave a responders at 300 mg/kg (female rats; [6]) of 0%, a responders at 300 mg/kg (female rats; [7]) of 10% and a responders at 300 mg/kg (female rats; [8]) of 10%. For the same molecule, the responders at 300 mg/kg (female rats; [9]) was 10%, the responders at 400 mg/kg (female rats; [10]) was 0% and the responders at 400 mg/kg (female rats; [11]) was 0%. It also gave a responders at 400 mg/kg (female rats; [12]) of 20%, a responders at 400 mg/kg (female rats; [13]) of 20% and a responders at 400 mg/kg (female rats; [14]) of 20%. The responders at 400 mg/kg (female rats; [15]) was 30%, the responders at 600 mg/kg (female rats; [16]) was 0% and the responders at 600 mg/kg (female rats; [17]) was 10%. For the same molecule, the responders at 600 mg/kg (female rats; [18]) was 20%, the responders at 600 mg/kg (female rats; [19]) was 40% and the responders at 600 mg/kg (female rats; [20]) was 40%. It also gave a responders at 600 mg/kg (female rats; [21]) of 40%.
With `CC(O)CC(=O)OC(CC(=O)[O-])C[N+](C)(C)C` (centres unmarked) the tolerance (mice) was “better tolerance properties”, the “Approx. LD50” value (mice; intravenously in mice, compounds used as hydrochloryde forms) was ~745 mg/kg and the “Contractile force, Mean ± S.E.” value (isolated rabbit hearts [2]; 1·10^-5 g/lt) was 54.3 ± 6.18%. For the same molecule, the “Contractile force, Mean ± S.E.” value (isolated rabbit hearts [2]; 1·10^-6 g/lt) was 30.1 ± 4.62%, the “Contractile force, Mean ± S.E.” value (isolated rabbit hearts [2]; 5·10^-6 g/lt) was 38.6 ± 7.12% and the positive inotropic effect (isolated rabbit hearts [2]; equal concentrations in the perfusion fluid, Student's t test) was “greater positive inotropic effect than that induced by d,l-carnitine”. The “Coronary flow, Mean ± S.E.” value (isolated rabbit hearts [3]; 1·10^-5 g/lt) was 89.19 ± 6.75%, the “Coronary flow, Mean ± S.E.” value (isolated rabbit hearts [3]; 1·10^-6 g/lt) was 73.12 ± 6.80% and the “Coronary flow, Mean ± S.E.” value (isolated rabbit hearts [3]; 5·10^-6 g/lt) was 76.04 ± 8.96%. For the same molecule, the “Mean percent variation versus controls: excitability (-%)” value (isolated rat atrium; 1·10^-4 g/lt) was 63.60%, the “Mean percent variation versus controls: frequency max (-%)” value (isolated rat atrium; 1·10^-4 g/lt) was 42.30% and the “Mean percent variation versus controls: refractory period (+%)” value (isolated rat atrium; 1·10^-4 g/lt) was 27.10%. The “Mean percent variation versus controls: rheobase (+%)” value (isolated rat atrium; 1·10^-4 g/lt) was 42.12%, the “Mean percent variation versus controls: excitability (-%)” value (isolated rat atrium; 1·10^-5 g/lt) was 19.12% and the “Mean percent variation versus controls: frequency max (-%)” value (isolated rat atrium; 1·10^-5 g/lt) was 23.20%. The “Mean percent variation versus controls: refractory period (+%)” value (isolated rat atrium; 1·10^-5 g/lt) was 20.31%, the “Mean percent variation versus controls: rheobase (+%)” value (isolated rat atrium; 1·10^-5 g/lt) was 25.35% and the “Mean percent variation versus controls: excitability (-%)” value (isolated rat atrium; 1·10^-6 g/lt) was 12.07%. The “Mean percent variation versus controls: frequency max (-%)” value (isolated rat atrium; 1·10^-6 g/lt) was 10.02%, the “Mean percent variation versus controls: refractory period (+%)” value (isolated rat atrium; 1·10^-6 g/lt) was 16.32% and the “Mean percent variation versus controls: rheobase (+%)” value (isolated rat atrium; 1·10^-6 g/lt) was 9.78%. The antiarrhythmic effect (isolated rat atrium; isolated rat atrium) was “most clear cut antiarrhythmic properties”, the “percentage of animals staying on the rota-rod more than 180 seconds” value (shortened to “percentage of animals staying”) (female rats; [5]) was 0% and the “percentage of animals staying” value (female rats; [6]) was 0%. For the same molecule, the “percentage of animals staying” value (female rats; 300 mg/kg i.p., session 3 (every 15 minutes)) was 0%, the “percentage of animals staying” value (female rats; [7]) was 0% and the “percentage of animals staying” value (female rats; [8]) was 10.0%. The “percentage of animals staying” value (female rats; [9]) was 20.0%, the “percentage of animals staying” value (female rats; [10]) was 0% and the “percentage of animals staying” value (female rats; [11]) was 0%. For the same molecule, the “percentage of animals staying” value (female rats; [12]) was 10.0%, the “percentage of animals staying” value (female rats; [13]) was 20.0% and the “percentage of animals staying” value (female rats; [14]) was 20.0%. For the same molecule, the “percentage of animals staying” value (female rats; [15]) was 30.0%, the “percentage of animals staying” value (female rats; [16]) was 0% and the “percentage of animals staying” value (female rats; [17]) was 0%. For the same molecule, the “percentage of animals staying” value (female rats; [18]) was 10.0%, the “percentage of animals staying” value (female rats; [19]) was 20.0% and the “percentage of animals staying” value (female rats; [20]) was 30.0%. For the same molecule, the “percentage of animals staying” value (female rats; [21]) was 40.0%, the “antagonism to adrenaline-induced toxicity” value ([4]; 250 mg/kg i.p. 30 minutes before adrenaline) was “antagonize adrenaline-induced toxicity to a greater degree than d,l-carnitine” and the “LD50 (fiducial limits for 95%) of adrenaline after the compound” value ([4]; Adrenaline + compound, compound 250 mg/kg i.p. 30 minutes before adrenaline, mice, mortality 36 hours) was 172.15 (110.02-219.48) mg/kg.
